Measurements reported in patent US20150051246A1 (priority 2013, published 2015).

Test system: male C57BL/6NCrl mice
Test: Object Location Task (OLT), spatial memory, 24 h retention interval
Assay type: in vivo
Conditions: for d2 index, discrimination index for T2: 3 h after T1, 24 h interval
Excerpt: The objective of this study was to evaluate the cognitive improvement effects of Roflumilast on spatial memory employing Object Location Task (OLT) in male C57BL/6NCrl mice. Roflumilast was compared with data of the already established PDE4 inhibitor Rolipram in the same model.
Twenty-four 7 month-old male C57BL/6NCrl mice (Charles River, L'Arbresle, France) were used (average body weights: 27.6 g). The animals were kept under a 12/12-hour light/dark cycle (lights on from 07.00 pm to 07.00 am) with free access to food and water. All testing was done between 09.00 am and maximally 06.00 pm.
Both rolipram (Sigma-Aldrich St. Louis, USA; MW 275.34) and roflumilast (Biocrea, Radebeul, Germany; MW 403.21) were dissolved in dimethylsulfoxide (DMSO) and kept at 4° C.; this stock solution was used for further dilutions in 0.5% methylcellulose. Each of rolipram and roflumilast is used in form of its free base. All injected solutions consisted of 0.5% methylcellulose with a fixed DMSO percentages (1.2%) (vehicle).
For the Object Location Task (OLT), doses of 0.01 mg/kg, 0.03 mg/kg and 0.1 mg/kg of Rolipram or Roflumilast or vehicle were administered subcutaneously (s.c.). Based on previous findings, PDE4 inhibitor single administration was performed 3 hours after the first trial as this has an optimum effect on object memory performance. The injection volume was 5 μl/g.
The OLT apparatus consisted of a circular arena, 40 cm in diameter. Half of the 40 cm transparent polyvinyl chloride wall was covered from the outside with white paper. Two objects were placed symmetrically about 10 cm away from the wall on the separation line, between the transparent and covered side of the arena. Four different sets of objects were available: (1) a cone made of brass (maximal diameter 6 cm and total height 3.8 cm), (2) a transparent glass bottle (diameter 2.7 cm, height 8.5 cm) filled with sand and water, (3) a massive metal cube (2.5 cm×5 cm×7.5 cm) with two holes (diameter 1.5 cm), and (4) a massive aluminum cube with a tapering top (4.5 cm×4.5 cm×8.5 cm).
A testing session comprised two trials of 4 minutes. Before each trial, mice were placed in an empty Makrolon cage (incubation cage) for the same amount of time as the trial (4 min). During the first trial (T1), two identical objects were placed symmetrically about 10 cm away from the wall on the separation line between the transparent and covered side of the arena. After the first exploration period of 4 min, the mouse was put back in its home cage. Mice then received treatment at 3 hours post T1. Subsequently, after a predetermined delay interval (24 h), the mouse was placed in the apparatus for the second trial of 4 min (T2). Two identical objects as in T1 were used; one object was placed in the previously used position, whereas the other was placed in a novel position. The novel position of the object could either be a fixed distance towards the front or a fixed distance towards the back of the arena for both objects. The times spent exploring each object during T1 and T2 were recorded manually using a personal computer. All objects and locations were used in a balanced manner to exclude possible object and/or location preferences. To avoid olfactory cues, the objects were thoroughly cleaned with 70% ethanol after each trial. The testing order of conditions was determined randomly.
The measurements reflected the time spent by the mice in exploring each object during T1 and T2. The time spent in exploring the two identical samples in T1 were represented by ‘a1’ and ‘a2’, respectively. The time spent in exploring the sample and the new object in T2 were represented by ‘a’ and ‘b’, respectively. From these exploration times the following variables were calculated: e1, e2, and d2 (Table 1). The d2 index is a relative measure of discrimination corrected for exploratory activity. […]

For `O=C(Nc1c(Cl)cncc1Cl)c1ccc(OC(F)F)c(OCC2CC2)c1` [roflumilast, N-(3,5-dichloropyridin-4-yl)-3-cyclopropylmethoxy-4-difluoromethoxybenzamide], the “d2 index, discrimination index for T2” value (0.01 mg/kg s.c.) was 0.04, the “d2 index, discrimination index for T2” value (0.03 mg/kg s.c.) was 0.34 and the “d2 index, discrimination index for T2” value (0.1 mg/kg s.c.) was 0.00. For the same compound, the “dose effective in improving spatial memory” value (s.c.) was 0.03 mg/kg, the “effect on spatial memory (in words)” value (single subcutaneous 0.01 mg/kg) was “nearly no effect” and the “effect on spatial memory (in words)” value (single subcutaneous 0.03 mg/kg) was “pronounced effect on spatial memory”. The “effect on spatial memory (in words)” value (single subcutaneous 0.1 mg/kg) was “completely no effect”.
